ChEMBL document CHEMBL1148455, “Synthesis and use of novel ether phospholipid enantiomers to probe the molecular basis of the antitumor Effects of alkyllysophospholipids: correlation of differential activation of c-Jun NH(2)-terminal protein kinase with antiproliferative effects in neuronal tumor cells” (2004)
Calls of active or inactive are those of the source. No cut-off for these calls is given here.

How the values were obtained:
SK-N-MC [1] = assay: Percentage viability of compound against SK-N-MC cell line; 92-94%; assay type: functional, Homo sapiens
T47D [2] = assay: Percentage viability of compound against T47D cell line; 92-94%; assay type: functional, Homo sapiens
MDA-MB-468 [3] = assay: Percentage viability of compound against MDA-MB-468 cell line; 92-94%; assay type: functional, Homo sapiens
MCF7 [4] = assay: Percentage viability of compound against MCF-7 cell line; assay type: functional, Homo sapiens
T47D [5] = assay: Percentage viability of compound against T47D cell line; NE means No effect; assay type: functional, cell-based; details: Homo sapiens
SK-N-MC [6] = assay: Percentage viability of compound against SK-N-MC cell line; NE means No effect; assay type: functional, cell-based; details: Homo sapiens
MCF7 [7] = assay: Percentage viability of compound against MCF-7 cell line; NE means No effect; assay type: functional, cell-based; details: Homo sapiens
MDA-MB-468 [8] = assay: Percentage viability of compound against MDA-MB-468 cell line; NE means No effect; assay type: functional, cell-based; details: Homo sapiens

Row | SMILES | Viability (SK-N-MC [1]) [%] | Viability (T47D [2]) [%] | Viability (MDA-MB-468 [3]) [%] | Viability (MCF7 [4]) [%] | Viability (T47D [5]) | Viability (SK-N-MC [6]) | Viability (MCF7 [7]) | Viability (MDA-MB-468 [8])
1 | CCCCCCCCCCCCCCCCOC[C@@H](/C=C/P(=O)([O-])OCC[N+](C)(C)C)OC | <94 | <94 | <94 | 61 |  |  |  | 
2 | CCCCCCCCCCCCCCCCOC[C@H](/C=C/P(=O)([O-])OCC[N+](C)(C)C)OC |  |  |  |  | inactive | inactive | inactive | inactive
